Laboratory results: patent publication US20020039746A1, “Methods for identifying peripheral benzodiazepine receptor binding agents” (priority 2000, published 2002)
Entries after “also recorded” stand apart in the source; their conditions may differ.

Legend:
[1] = test system: inducible PBzR overexpressing SH-SY5Y-derived cells (IPBR-1); assay: apoptogen-driven caspase activation in tetracycline-inducible PBzR overexpressing SH-SY5Y-derived cells; type: cell-based
Protocol: (§1) Caspases are apoptosis-activated proteases, and caspase induction in cells is often indicative that the cells are undergoing programmed cell death (apoptosis). Apoptosis can be induced by a variety of compounds, including etoposide. S11 or vector control cells were plated at 30,000 cells/well in 96 well plates and grown for 20 hours. […] At this time, media was aspirated and caspase activity was measured by addition of 23 uM DEVD, a peptide that is fluorescent when cleaved by caspase 3, in PBS along with 0.03% digitonin. Fluorescence was measured in an Fmax™ 96-well plate reader (Molecular Devices, Sunnyvale, Calif.) using a kinetic assay. Total number of cells was determined using propidium iodide staining and used to normalize for total number of cells in each well.
The effect of tetracycline induced PBzR overexpression on apoptogen-driven (C2-ceramide, 80 μM, 8 hrs) caspase activation was examined in a selected, oligoclonal tetracycline-inducible PBzR overexpressing SH-SY5Y-derived cell line (FIG. 20). […] The caspase response also correlated with cell viability determinations (FIG. 22), consistent with presumed caspase roles in apoptotic cascades. […] Western blot analysis of IPBR-1 mitochondrial fractions isolated on metrizamide gradients and normalized on the basis of mitochondrial ETC Complex IV activity (as described above) confirmed a dramatic increase in PBzR expression. No discernible change in Bcl-2 expression levels, however, accompanied the induction of PBzR overexpression.

[2] = test system: S11 cells and vector control cells; assay: caspase activation (DEVD cleavage) in S11 and vector control cells; type: cell-based
Protocol: as §1
Etoposide and ceramide treatments were as described above.

S11 mitochondria = assay: cytochrome C release upon calcium induced permeability transition; type: cell-based
[3] = target: T1, peripheral benzodiazepine receptor (PBR, PBzR) (Homo sapiens, UniProt P30536); assay: [3H]PK-11195 saturation binding to cell membranes
T1 construct: expressed in transfected cells; membranes
T1 sequence (P30536 whole entry): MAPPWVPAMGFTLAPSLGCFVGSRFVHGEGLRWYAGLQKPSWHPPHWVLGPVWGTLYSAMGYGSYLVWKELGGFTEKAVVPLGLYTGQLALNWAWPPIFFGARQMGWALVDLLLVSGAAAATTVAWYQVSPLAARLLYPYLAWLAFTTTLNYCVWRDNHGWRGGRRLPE

[4] = PK-11195 induced cell death, propidium iodide staining, S11 cells; type: cell-based; conditions: human, read-out: percent of non-viable cells
Protocol: (§2) This provides apparent evidence for a functional link between PBR and Bcl-2. […] Cell viability was determined by propidium iodide staining cells and quantifying fluorescence with an Fmax™ plate reader (Molecular Devices, Sunnyvale, Calif.) according to the manufacturer's instructions.

[5] = PK-11195 induced cell death, propidium iodide staining, vector control cells; type: cell-based; conditions: human, vector control cells (low Bcl-2 expression), read-out: percent of non-viable cells
Protocol: as §2

IPBR-1 cells = assay: PBzR ligand effect on doxorubicin induced caspase activation in IPBR-1 cells; type: cell-based; conditions: induced but not uninduced IPBR-1 cells, dose-dependent
Description: Accordingly, the present invention provides the unexpected finding that peripheral benzodiazepine ligands may be distinguished on the basis of whether they preferentially alter apoptosis, and whether they preferentially alter a mitochondrial function. Data also indicate that benzodiazepine-related PBR ligands can act as effective anti-apoptotic agents, which may be of benefit in the treatment of certain neuropathologies and/or in chronic inflammatory conditions.

PBzR = target: T2, PBzR (Homo sapiens, UniProt P30536); assay: displacement of [3H]PK-11195 binding to the S11 PBzR overexpressing clone; conditions: read-out: IC50, displacement of [3H]PK-11195; 6 μg S11 protein per data point
T2 construct: expressed in transfected cells; host or cells: S11, clonal SH-SY5Y-derived stably transfected PBzR-overexpressing line
T2 sequence (P30536 whole entry): as above
Protocol: Additional experiments were performed to further characterize the binding of ligand to PBzR.
The S11 cell line was used as a source of PBzR.

For `CCCCCCCCCCCCC/C=C/[C@@H](O)[C@H](CO)NC(C)=O` [C2-ceramide], the “caspase activation, induced versus uninduced cells” value ([1]; oligoclonal tetracycline-inducible line, 80 μM, 8 hrs) was “resistance to ceramide-stimulated caspase activation” and the “caspase activation, S11 cells versus vector controls” value ([2]; concentrations of 80 and 100 μM) was “much greater activation of caspase in vector control cells than in the S11 cells”.

With `CCC(C)N(C)C(=O)c1cc2ccccc2c(-c2ccccc2Cl)n1` (stereo not drawn) [PK-11195, 1-(2-chlorophenyl)-N-methyl-N-(1-methylpropyl)-3-isoquinolinecarboxamide] the “release of cytochrome C from mitochondria” value (S11 mitochondria) was “caused a release of cytochrome C”, the “Bmax (pmol/mg)” value ([3]; Jurkat Vector) was “Not detected” and the “Bmax” value ([3]; S11) was 43 pmol/mg. The “receptor concentration from saturation binding curves” value ([3]; S11 SY5Y clone / pooled over-expressors as worded) was 25 pmol/mg, the “Bmax” value ([3]; SH-SY5Y Vector) was 1.8 pmol/mg and the “binding maximum (BMAX)” value ([3]; native SY5Y cells) was 1.8 pmol/mg. For the same compound, the “binding maximum (BMAX)” value ([3]; stable PBR expressing SY5Y cells) was 25 ± 1.5 pmol/mg, the cytotoxicity at 24 h, 100 µM [4] was < 20% and the cytotoxicity at 24 h, 20 µM ([5]; 20 μM) was ~10%. The cytotoxicity at 24 h, 100 µM ([5]; 100 μM) was ~40%.

With `CN1C(=O)CN=C(c2ccc(Cl)cc2)c2cc(Cl)ccc21` [RO 05-4864, 4′chlorodiazepam] the “effect on doxorubicin induced activation of caspase” value (IPBR-1 cells) was “protective effect against the doxorubicin induced activation of caspase” and the IC50 (PBzR) was 0.0368 µM.

With `Nc1c[n+](N2CCOCC2)no1.[Cl-]` [SIN-1, 3-morpholinosydnonimine, HCl] the “caspase activation, induced versus uninduced cells” value ([1]; IPBR-1, 100-400 μM) was “resistance to caspase activation”.

In the case of `COc1cccc2c1C(=O)c1c(O)c3c(c(O)c1C2=O)C[C@@](O)(C(=O)CO)C[C@@H]3O[C@H]1C[C@H](N)[C@H](O)[C@H](C)O1` [doxorubicin], the “caspase activation, induced versus uninduced cells” value ([1]; IPBR-1, 4 μM, 8 hrs) is reported as “moderated the degree of caspase activation”.

In the case of `COc1cc([C@@H]2c3cc4c(cc3[C@@H](O[C@@H]3O[C@@H]5CO[C@@H](C)O[C@H]5[C@H](O)[C@H]3O)[C@H]3COC(=O)[C@H]23)OCO4)cc(OC)c1O` [etoposide], the “caspase activation, S11 cells versus vector controls” value ([2]; etoposide 2-6 μM, six hours) is reported as “caspase activation occurred at a higher rate in S11 cells than in vector controls; also recorded: greater activation of caspase in S11 cells than in vector controls”.

In the case of `C/C=C(/C)C(=O)O[C@H]1C(C)=C2[C@H]([C@@H]1OC(=O)CCCCCCC)[C@@](C)(OC(C)=O)C[C@H](OC(=O)CCC)[C@@]1(O)[C@H]2OC(=O)[C@@]1(C)O` [thapsigargin], the “caspase activation, induced versus uninduced cells” value ([1]; tetracycline-induced IPBR-1) is reported as “no reduction in caspase activation”.
